Laboratory results: patent US20210220408A1, “ARYL HYDROCARBON RECEPTOR ANTAGONISTS AND METHODS OF USE” (Magenta Therapeutics Inc., priority 2018, published 2021)

What was measured:
[1] = target: T1, aryl hydrocarbon receptor (AHR) (Homo sapiens, UniProt P35869); experiment: DRE-Luciferase reporter high-throughput screen (AHR antagonist, VAF347-activated)
T1 sequence (P35869 11-848): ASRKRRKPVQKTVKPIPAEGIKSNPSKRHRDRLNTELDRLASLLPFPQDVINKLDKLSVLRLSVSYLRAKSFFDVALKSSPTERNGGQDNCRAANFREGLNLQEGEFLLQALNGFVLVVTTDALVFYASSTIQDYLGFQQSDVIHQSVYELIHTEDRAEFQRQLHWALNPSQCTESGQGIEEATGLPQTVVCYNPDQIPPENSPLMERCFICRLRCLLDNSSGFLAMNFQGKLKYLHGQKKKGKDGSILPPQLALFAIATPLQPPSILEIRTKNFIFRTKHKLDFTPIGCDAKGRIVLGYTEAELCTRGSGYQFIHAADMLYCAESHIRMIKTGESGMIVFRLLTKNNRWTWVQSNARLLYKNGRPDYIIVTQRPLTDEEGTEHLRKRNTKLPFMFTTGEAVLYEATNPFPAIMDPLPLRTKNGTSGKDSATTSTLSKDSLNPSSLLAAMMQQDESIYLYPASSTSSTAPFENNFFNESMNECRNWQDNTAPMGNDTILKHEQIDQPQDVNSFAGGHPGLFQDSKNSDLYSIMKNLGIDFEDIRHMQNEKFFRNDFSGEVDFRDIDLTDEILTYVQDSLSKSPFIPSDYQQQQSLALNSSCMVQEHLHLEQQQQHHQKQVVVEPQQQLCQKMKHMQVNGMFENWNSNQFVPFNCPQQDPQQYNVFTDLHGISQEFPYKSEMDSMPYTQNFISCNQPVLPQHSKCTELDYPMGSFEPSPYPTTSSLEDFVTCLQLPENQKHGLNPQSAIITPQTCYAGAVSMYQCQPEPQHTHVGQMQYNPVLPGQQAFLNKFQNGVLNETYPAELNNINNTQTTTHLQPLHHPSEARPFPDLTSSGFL

[2] = test system: mobilized peripheral blood CD34+ cells; experiment: CD34+ expansion assay; assay type: cell-based; conditions: Homo sapiens; read-out: CD34 Frequency EC50
Protocol: Approximately 3,000 mobilized peripheral blood CD34+ cells were plated per well in 384-well plate at a final volume of 45 μL in HSC growth media (SFEM supplemented with Pen/Strep, 50 ng/mL FLT3L, TPO, SCF and IL-6). Serial dilutions were made in HSC growth media with a top final concentration of 10 μM. 5 μL 10× stock was added to each well. The plate was gently tapped on all sides and incubated for 7 days at 37° C./5% CO2. On day 7, the media was aspirated on a Biotek plate washer and 30 μL staining solution was added to the cells with antibodies against CD34-PE, CD90-APC, CD45RA-PE-CF594 in PBS. Cells were washed once in PBS and resuspended in 80 μL for final volume. 40 μL was acquired by flow cytometry (BD Celesta).

Work on `COc1cccc(NC(=O)c2cc3c(=O)n4ccccc4nc3n2C)c1` [compound 18] yielded an IC50 [1] of 200 to 500 nM and an EC50 [2] of less than 500 nM.
Compound `Cc1ccc(-c2ccc3c(C)nn(-c4ccccn4)c3n2)cc1` [compound 105] has an IC50 [1] of 200 to 500 nM and an EC50 [2] of 1000 to 5000 nM.
In the case of `COc1ccc(-c2nnc(Nc3ccccc3O)c3ccccc23)cc1` [compound 130], the IC50 [1] is reported as 500 to 1000 nM and the EC50 [2] is reported as 1000 to 5000 nM.
With `N#Cc1ccc(C(=O)Nc2cc(C(F)(F)F)ccc2Cl)c(F)c1` [compound 2] the IC50 [1] was 200 to 500 nM and the EC50 [2] was 500 to 1000 nM.
Compound `Cc1cc(-c2nnc3sc(-c4ccc(F)cc4)nn23)[nH]n1` [compound 71] has an IC50 [1] of 500 to 1000 nM and an EC50 [2] of 500 to 1000 nM.
Compound `Cc1ccc(C(=O)Nc2ccc(-c3nccs3)cc2)cc1` [compound 8] has an IC50 [1] of 500 to 1000 nM and an EC50 [2] of 1000 to 5000 nM.
`Cn1c(SCc2ccc(-c3ccccc3)cc2)nnc1C(F)(F)F` [compound 95] gave an IC50 [1] of 500 to 1000 nM and an EC50 [2] of 1000 to 5000 nM.
Work on `Cc1ccc(N/N=C/c2ccc(-n3ccnc3)cc2)cc1Cl` [compound 98] yielded an IC50 [1] of 500 to 1000 nM and an EC50 [2] of 1000 to 5000 nM.
Work on `COc1ccc(-c2n[nH]c3c2C(=O)CC(c2ccccc2)C3)cc1` (stereo not drawn) [compound 117] yielded an IC50 [1] of less than 200 nM and an EC50 [2] of less than 500 nM.
`Cc1ccc2nc(-c3ccc(-c4ccccn4)s3)cn2c1` [compound 101] showed an IC50 [1] of 500 to 1000 nM and an EC50 [2] of 500 to 1000 nM.
In the case of `Cc1c(Cl)c(=O)oc2cc(OCc3ccc(Cl)cc3)ccc12` [compound 137], the IC50 [1] is reported as 500 to 1000 nM and the EC50 [2] is reported as no less than 5000 nM.
Compound `O=C(Nc1ccc(-c2nnc3n2CCCCC3)cc1)c1cccc2cccnc12` [compound 24] has an IC50 [1] of 200 to 500 nM and an EC50 [2] of 500 to 1000 nM.
`Cc1ccc(-c2csc(-c3ccncc3)n2)c(C)c1` [compound 52] was tested, and the IC50 [1] was 500 to 1000 nM and the EC50 [2] was 1000 to 5000 nM.
Compound `Cn1cnnc1Sc1ccc(NC(=O)c2cc(Br)ccc2F)cc1` [compound 7] has an IC50 [1] of 500 to 1000 nM and an EC50 [2] of 1000 to 5000 nM.
`Cc1ccc(Nc2cc(-c3ccccc3)nc3ncnn23)cc1` [compound 107] gave an IC50 [1] of 500 to 1000 nM and an EC50 [2] of 1000 to 5000 nM.
`COc1ccc(Nc2nc(-c3ccccn3)cs2)cc1` [compound 59] gave an IC50 [1] of 500 to 1000 nM and an EC50 [2] of less than 500 nM.
`CC(=O)N1CCN(c2nc3cc(C(F)(F)F)ccc3s2)CC1` [compound 74] gave an IC50 [1] of 500 to 1000 nM and an EC50 [2] of 1000 to 5000 nM.
Work on `Cc1ccc(Cl)cc1-n1ccc2nc(N3CCCCC3)ncc2c1=O` [compound 134] yielded an IC50 [1] of 500 to 1000 nM and an EC50 [2] of 1000 to 5000 nM.
`CC(=O)c1c(C)nc2nc(SCc3cccc(Cl)c3)nn2c1C` [compound 125] gave an IC50 [1] of 500 to 1000 nM and an EC50 [2] of 1000 to 5000 nM.
In the case of `Cn1nc(C(C)(C)C)cc1-c1nn2c(-c3cccs3)nnc2s1` [compound 73], the IC50 [1] is reported as 500 to 1000 nM and the EC50 [2] is reported as 1000 to 5000 nM.
`CCOC(=O)N1CCN(c2nc(CC)nc3sc(C)cc23)CC1` [compound 75] was tested, and the IC50 [1] was 200 to 500 nM and the EC50 [2] was 1000 to 5000 nM.
For `Cc1cc(Oc2ncccc2C#N)ccc1NC(=O)c1oc(Br)cc1C` [compound 26], the IC50 [1] was 200 to 500 nM and the EC50 [2] was 1000 to 5000 nM.
`COc1ccc(NC(=O)CNc2ccc(C(F)(F)F)cc2)cc1Cl` [compound 127] gave an IC50 [1] of 500 to 1000 nM and an EC50 [2] of 1000 to 5000 nM.
For `FC(F)(F)c1nc(N2CCN(c3ncccn3)CC2)c2ccccc2n1` [compound 76], the IC50 [1] was 200 to 500 nM and the EC50 [2] was no less than 5000 nM.
With `c1ccc2nc(SCc3nc4ccccc4[nH]3)ccc2c1` [65B] the IC50 [1] was 1000 to 2000 nM.
With `O=C(Nc1ccc(C(F)(F)F)oc1=O)c1ccc(Cl)cc1` [17B] the IC50 [1] was 500 to 1000 nM.
`Cc1ccc(N2CCN(C(=O)Nc3cc(F)cc(F)c3)CC2)nn1` [78A] was tested, and the IC50 [1] was 1000 to 2000 nM.
`Cc1ccc(-c2nc(Cn3cnc(C#N)n3)co2)c(C)c1` [134A] gave an IC50 [1] of 1000 to 2000 nM.
`O=S(=O)(Cc1cccc(F)c1)c1ccc2ccccc2c1` [93B] showed an IC50 [1] of 200 to 500 nM.
`CN(/N=C/c1cc(Br)cs1)c1ccc(Cl)nn1` [50B] showed an IC50 [1] of 500 to 1000 nM.
`Cc1ccc(-c2cc(C(=O)NCc3cccnc3)c3cc(Br)ccc3n2)cc1` [155A] was tested, and the IC50 [1] was 1000 to 2000 nM.
`O=C(Nc1ccc(OC(F)F)c(Cl)c1)c1cccc(Cl)c1` [5B] gave an IC50 [1] of 500 to 1000 nM.
`c1cncc(-c2noc(-c3cc(-c4cccs4)[nH]n3)n2)c1` [compound 144] showed an IC50 [1] of 500 to 1000 nM.
